Reference: ChEMBL document CHEMBL4665900, “Novel Pyrido-pyrimidinones and Pteridinones as Endoribonuclease Inositol Requiring Enzyme 1 (IRE1α) Inhibitors for Treating Cancer” (ACS Med Chem Lett, 2020)

Molecular target: Serine/threonine-protein kinase/endoribonuclease IRE1 (Homo sapiens, UniProt O75460)
Test: Inhibition of human His-tagged IRE1alpha expressed in Sf9 insect cells preincubated for 1 hr followed by Alexa fluor 647-labeled probe addition and measured after 1 hr by TR-FRET assay

Serine/threonine-protein kinase/endoribonuclease IRE1, sequence (O75460 whole entry): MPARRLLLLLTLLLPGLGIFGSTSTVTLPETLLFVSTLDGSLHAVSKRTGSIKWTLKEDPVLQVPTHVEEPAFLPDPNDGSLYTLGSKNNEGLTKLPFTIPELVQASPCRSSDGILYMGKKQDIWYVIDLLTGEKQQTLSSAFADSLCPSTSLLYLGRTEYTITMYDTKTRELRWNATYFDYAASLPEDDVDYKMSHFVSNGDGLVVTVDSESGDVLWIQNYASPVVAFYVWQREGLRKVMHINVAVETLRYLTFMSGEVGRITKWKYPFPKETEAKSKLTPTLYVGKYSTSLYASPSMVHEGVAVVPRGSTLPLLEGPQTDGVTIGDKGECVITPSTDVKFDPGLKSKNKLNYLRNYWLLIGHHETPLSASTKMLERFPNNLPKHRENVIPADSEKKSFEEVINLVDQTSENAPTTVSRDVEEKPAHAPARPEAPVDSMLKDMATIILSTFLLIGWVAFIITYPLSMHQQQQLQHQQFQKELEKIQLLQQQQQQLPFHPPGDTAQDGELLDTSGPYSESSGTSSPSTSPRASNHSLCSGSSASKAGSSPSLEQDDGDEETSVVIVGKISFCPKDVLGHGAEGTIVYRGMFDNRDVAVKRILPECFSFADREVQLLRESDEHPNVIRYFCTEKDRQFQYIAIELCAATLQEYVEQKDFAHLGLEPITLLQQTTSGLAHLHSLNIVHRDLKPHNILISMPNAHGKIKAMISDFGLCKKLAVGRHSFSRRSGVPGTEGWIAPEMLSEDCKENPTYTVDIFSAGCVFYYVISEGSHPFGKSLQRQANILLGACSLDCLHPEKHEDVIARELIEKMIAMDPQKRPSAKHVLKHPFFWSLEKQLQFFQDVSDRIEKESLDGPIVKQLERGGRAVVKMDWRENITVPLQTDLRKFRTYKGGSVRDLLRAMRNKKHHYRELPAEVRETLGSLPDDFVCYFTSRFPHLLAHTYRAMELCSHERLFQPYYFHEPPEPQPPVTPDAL

| IC50 [nM] | Structure (SMILES) |
| --- | --- |
| 0.05 | COCCN(C)[C@H]1CC[C@H](Nc2ncc3cc(-c4ccc(NS(=O)(=O)Cc5ccc(F)cc5)c(F)c4)c(=O)n(C(C)C)c3n2)CC1 |
| 0.11 | COc1cccc(CS(=O)(=O)Nc2c(F)cc(-c3cc4cnc(N[C@@H]5CNC[C@@H](F)C5)nc4n(C(C)C)c3=O)c(F)c2F)c1 |
| 0.1 | CC(C)n1c(=O)c(-c2ccc(NS(=O)(=O)Cc3ccc(C#N)cc3)c(F)c2)nc2cnc(N[C@@H]3CNC[C@@H](F)C3)nc21 |
| 0.1 | CC(C)n1c(=O)c(-c2cc(F)c(NS(=O)(=O)CC3(C(F)(F)F)CC3)c(F)c2)nc2cnc(N[C@H]3CC[C@H](N(C)C)CC3)nc21 |
| 0.09 | Cc1ccc(CS(=O)(=O)Nc2ccc(-c3nc4cnc(N[C@@H]5CNC[C@@H](F)C5)nc4n(C(C)C)c3=O)cc2F)c(C#N)c1 |
| 0.08 | CC(C)n1c(=O)c(-c2c(F)cc(NS(=O)(=O)Cc3ccc(F)cc3)cc2F)cc2cnc(N[C@H]3CC[C@H](N(C)C)CC3)nc21 |
